Test results reported in patent US5112382A, “Halopropargyl compounds, compositions, uses and processes of preparation” (Rohm and Haas Company, priority 1990, dated 1992).
≈ marks a conversion by molar mass, not a printed value. Read-outs that look alike come from different tables or passages of the source.

Key:
[1] = tested on: Erysiphe graminis (f. sp. tritici); test: whole plant or invertebrate; format: in vivo; conditions: Blumeria graminis
Pseudomonas aerugenosa = test: MIC, broth two-fold serial dilution test, Psae; format: cell-based; conditions: read-out: Minimum Inhibitory Concentration (MIC)
Method: (§1) A minimum inhibitory concentration (MIC) value is obtained using a broth, two-fold serial dilution test performed as follows: […] A volume of the stock solution is dispensed into culture media to give an initial starting test concentration of 500 ppm compound. The test is carried out by adding and equal volume of broth to each vessel in the dilution series, except for the first vessel. The first vessel contains twice the volume of broth plus the initial concentration of test compound. One half of the broth from the first vessel is transferred to the second vessel. After being mixed, one half the resulting volume is removed from the second vessel and transferred to the third vessel. The entire cycle is repeated sufficiently to give a series of concentrations amounting to 500, 250, 125, 63, 31, 16, 8, and 4 ppm (or 100, 50, 25, 12.5, 6.2, 3.1, 1.6, and 0.8), respectively. Each vessel is then inoculated with a cell suspension of the appropriate test organism. Bacteria are grown in both and fungi on agar slats for a time and at a temperature appropriate to the species being tested. At the end of the growth period, the broth is vortexed to disperse the cells. In the case of fungi, the pores are harvested by pipetting water onto the slant and dislodging the spores with a sterile loop. The cell/spore suspension is standardized by controlling incubation time, temperature, and the volume of the diluent. The suspension is then used to inoculate the vessels containing the broth compound. The vessels are then incubated at the appropriate temperature. After the incubation, the vessels are examined for growth/no growth. The minimum inhibitory concentration (MIC) is defined as the lowest concentration of compound that results in complete inhibition of growth of the test organism.

Aureobasidium pullulans = test: MIC, broth two-fold serial dilution test, Apul; format: cell-based; conditions: read-out: Minimum Inhibitory Concentration (MIC)
Method: as §1

[2] = tested on: Puccinia recondita (f. sp. tritici Races PKB and PLD); test: whole plant or invertebrate; format: in vivo; conditions: 240 h
Escherichia coli = test: MIC, broth two-fold serial dilution test, Ecol; format: cell-based; conditions: read-out: Minimum Inhibitory Concentration (MIC)
Method: as §1

Staphylococcus aureus = test: MIC, broth two-fold serial dilution test, Saur; format: cell-based; conditions: read-out: Minimum Inhibitory Concentration (MIC)
Method: as §1

Pseudomonas fluorescens = test: MIC, broth two-fold serial dilution test, Psfl; format: cell-based; conditions: read-out: Minimum Inhibitory Concentration (MIC)
Method: as §1

Aspergillus niger = test: MIC, broth two-fold serial dilution test, Anig; format: cell-based; conditions: read-out: Minimum Inhibitory Concentration (MIC)
Method: as §1

Phytophthora infestans = test: whole plant or invertebrate; format: in vivo; conditions: in Solanum lycopersicum, 96 h, read-out: % Control
[3] = tested on: Pseudoperonospora cubensis; test: whole plant or invertebrate; format: in vivo; conditions: in Cucumis sativus, 168 h
Piricularia oryzae [4] = test: whole plant or invertebrate; format: in vivo; conditions: Pyricularia oryzae, 192 h, read-out: % Control
[5] = tested on: Septoria glume blotch of wheat; test: whole plant or invertebrate; format: in vivo; conditions: Triticum aestivum
Botrytis cinerea = test: In-vitro plant fungicide test, BOC; conditions: read-out: % Control
Cochliobolus sativus = test: In-vitro plant fungicide test, HEL; format: cell-based; conditions: Bipolaris sorokiniana, read-out: % Control; for inhibition of growth at 25 ppm: rate 25 PPM; for inhibition of growth at 50 ppm: rate 50 PPM
Phytophthora capsici = test: In-vitro plant fungicide test, PHY; format: cell-based; conditions: read-out: % Control; for inhibition of growth at 25 ppm: rate 25 PPM; for inhibition of growth at 50 ppm: rate 50 PPM
Rhizoctonia solani = test: In-vitro plant fungicide test, RHI; format: cell-based; conditions: read-out: % Control; for inhibition of growth at 25 ppm: rate 25 PPM; for inhibition of growth at 50 ppm: rate 50 PPM
Piricularia oryzae [6] = test: microbe, parasite or virus in culture; format: cell-based; conditions: read-out: % Control
Xanthomonas campestris = test: In-vitro plant fungicide test, XAN; format: cell-based; conditions: read-out: % Control
Fusarium roseum = test: microbe, parasite or virus in culture; conditions: Fusarium sambucinum, read-out: % Control
Pythium ultimum = test: In-vitro plant fungicide test, PYU; format: cell-based; conditions: Globisporangium ultimum, read-out: % Control; for inhibition of growth at 25 ppm: rate 25 PPM; for inhibition of growth at 50 ppm: rate 50 PPM
Septoria nodorum = test: In-vitro plant fungicide test, SEP; format: cell-based; conditions: Parastagonospora nodorum, read-out: % Control; for inhibition of growth at 25 ppm: rate 25 PPM; for inhibition of growth at 50 ppm: rate 50 PPM

SMILES | pest or weed control at 200 ppm [1] [%] | MIC (Pseudomonas aerugenosa) [µg/mL] | MIC (Aureobasidium pullulans) [µg/mL] | pest or weed control at 200 ppm [2] [%] | MIC (Escherichia coli) [µg/mL] | MIC (Staphylococcus aureus) [µg/mL] | MIC (Pseudomonas fluorescens) [µg/mL] | MIC (Aspergillus niger) [µg/mL] | pest or weed control at 200 ppm (Phytophthora infestans) [%] | pest or weed control at 200 ppm [3] [%] | pest or weed control at 200 ppm (Piricularia oryzae [4]) [%] | pest or weed control at 200 ppm [5] [%] | inhibition of growth at 50 ppm (Botrytis cinerea) [%] | inhibition of growth at 50 ppm (Septoria nodorum) [%] | inhibition of growth at 50 ppm (Cochliobolus sativus) [%] | inhibition of growth at 50 ppm (Phytophthora capsici) [%] | inhibition of growth at 50 ppm (Rhizoctonia solani) [%] | inhibition of growth at 50 ppm (Piricularia oryzae [6]) [%] | inhibition of growth at 50 ppm (Fusarium roseum) [%] | inhibition of growth at 50 ppm (Pythium ultimum) [%] | other results
COC(=O)N(CC#CI)N=Cc1ccc(C)cc1 [Compound 4, N'-Methoxycarbonyl-N'-3-iodopropargyl 4-methylbenzaldehyde hydrazone] | 0 | 125 (≈ 351 µM) | 8 (≈ 22.5 µM) | 50 | 250 (≈ 702 µM) | 16 (≈ 44.9 µM) | 125 (≈ 351 µM) | < 4 | 80 | 95 | 90 | 50 |  |  |  |  |  |  |  |  | 
COC(=O)N(CC#CI)N=Cc1ccc(Cl)cc1 [Compound 5, N'-Methoxycarbonyl-N'-3-iodopropargyl 4-chlorobenzaldehyde hydrazone] | 0 | 16 (≈ 42.5 µM) | < 4 | 80 | 125 (≈ 332 µM) | 8 (≈ 21.2 µM) | 125 (≈ 332 µM) | < 4 | 90 | 99 | 95 | 0 |  |  |  |  |  |  |  |  | inhibition of growth at 25 ppm (Botrytis cinerea): 0%; inhibition of growth at 25 ppm (Cochliobolus sativus): 100%; inhibition of growth at 25 ppm (Phytophthora capsici): 50%; inhibition of growth at 25 ppm (Rhizoctonia solani): 75%; inhibition of growth at 25 ppm (Piricularia oryzae [6]): 100%; inhibition of growth at 25 ppm (Xanthomonas campestris; XAN, rate 25 PPM): 0%; inhibition of growth at 25 ppm (Fusarium roseum): 95%; inhibition of growth at 25 ppm (Pythium ultimum): 50%
COC(=O)N(CC#CBr)N=Cc1ccc(F)cc1 [Compound 7, N'-Methoxycarbonyl-N'-3-bromopropargyl 4-fluorobenzaldehyde hydrazone] | 0 | 31 (≈ 99 µM) | 31 (≈ 99 µM) | 0 | 125 (≈ 399 µM) | 63 (≈ 201 µM) | 125 (≈ 399 µM) | 31 (≈ 99 µM) | 0 | 0 | 0 | 0 | 0 | 0 | 0 | 90 | 0 | 90 | 0 | 100 | inhibition of growth at 25 ppm (Botrytis cinerea): 0%; inhibition of growth at 25 ppm (Septoria nodorum): 100%; inhibition of growth at 25 ppm (Cochliobolus sativus): 0%; inhibition of growth at 25 ppm (Phytophthora capsici): 0%; inhibition of growth at 25 ppm (Rhizoctonia solani): 0%; inhibition of growth at 25 ppm (Piricularia oryzae [6]): 0%; inhibition of growth at 50 ppm (Xanthomonas campestris; XAN, rate 50 PPM): 0%; inhibition of growth at 25 ppm (Xanthomonas campestris): 0%; inhibition of growth at 25 ppm (Fusarium roseum): 0%; inhibition of growth at 25 ppm (Pythium ultimum): 0%
COC(=O)N(CC#CI)N=Cc1ccc([N+](=O)[O-])o1 [Compound 8, N'-Methoxycarbonyl-N'-3-iodopropargyl 5-nitro-2-furancarboxaldehyde hydrazone] | 0 | 125 (≈ 331 µM) | < 4 | 0 | 63 (≈ 167 µM) | < 4 | 250 (≈ 663 µM) | < 4 | 0 | 0 | 90 | 0 | 0 | 100 | 100 |  | 100 | 100 | 100 | 100 | inhibition of growth at 50 ppm (Xanthomonas campestris): 0%
COC(=O)N(CC#CI)N=Cc1ccc(C#N)cc1 [Compound 9, N'-Methoxycarbonyl-N'-3-iodopropargyl 4-cyanobenzaldehyde hydrazone] | 0 | > 500 |  | 0 | > 500 | > 500 | > 500 | > 250 | 0 | 85 | 0 | 0 | 50 | 100 | 100 | 95 | 100 | 100 | 100 | 100 | inhibition of growth at 50 ppm (Xanthomonas campestris; XAN, rate 50 PPM): 0%
COC(=O)N(CC#CI)N=Cc1ccc(F)cc1 [Compound 10, N'-Methoxycarbonyl-N'-3-iodopropargyl 4-fluorobenzaldehyde hydrazone] | 50 | > 500 | < 4 | 0 | > 500 | < 4 | > 500 | < 4 | 0 | 50 | 50 | 0 | 0 | 100 | 100 | 100 | 100 | 100 | 100 | 100 | inhibition of growth at 50 ppm (Xanthomonas campestris; XAN, rate 50 PPM): 0%
COC(=O)N(CC#CI)N=Cc1ccc(Cl)c(Cl)c1 [Compound 11, N'-Methoxycarbonyl-N'-3-iodopropargyl 3,4-dichlorobenzaldehyde hydrazone] | 0 | > 500 | < 4 |  | > 500 | 8 (≈ 19.5 µM) | > 500 | < 4 | 80 | 95 | 90 | 0 | 50 | 90 | 100 | 90 | 100 | 100 | 100 | 0 | inhibition of growth at 50 ppm (Xanthomonas campestris; XAN, rate 50 PPM): 0%
CCOC(=O)N(CC#CI)N=Cc1ccc(Cl)c(Cl)c1 [Compound 13, N'-Ethoxycarbonyl-N'-3-iodopropargyl 3,4-dichlorobenzaldehyde hydrazone] | 50 | > 100 | > 100 | 50 | > 100 | > 100 | > 100 | 100 (≈ 235 µM) | 0 | 85 | 0 | 0 |  |  |  |  |  |  |  |  | inhibition of growth at 25 ppm (Botrytis cinerea): 0%; inhibition of growth at 25 ppm (Septoria nodorum): 50%; inhibition of growth at 25 ppm (Cochliobolus sativus): 50%; inhibition of growth at 25 ppm (Phytophthora capsici): 0%; inhibition of growth at 25 ppm (Rhizoctonia solani): 90%; inhibition of growth at 25 ppm (Piricularia oryzae [6]): 100%; inhibition of growth at 25 ppm (Xanthomonas campestris; XAN, rate 25 PPM): 0%; inhibition of growth at 25 ppm (Fusarium roseum): 75%; inhibition of growth at 25 ppm (Pythium ultimum): 0%
